From ChEMBL document CHEMBL1201862, “PubChem BioAssay data set” (2004)
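Where inhibition never reached the appropriate level, the endpoint shown equals the highest concentration tested. Otherwise, values were interpolated linearly from a five-concentration, 48-hour dose response in 96-well plates. GI50 marks 50% less growth.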 Active and inactive are the calls of the source. Rule as the data show it: active = GI50 up to about 1.1 µM and inactive = higher.

Tests used:
Assay in all cases: growth of human tumour cells (NCI), 48 h
SK-MEL-28 = test system: SK-MEL-28
UACC-257 = test system: UACC-257
RXF 393 = test system: RXF 393
EKVX = test system: EKVX
K562 = test system: K562
HCT-116 = test system: HCT-116
UO-31 = test system: UO-31
NCI-H23 = test system: NCI-H23
SN12C = test system: SN12C
OVCAR-5 = test system: OVCAR-5
NCI-H522 = test system: NCI-H522
HL-60 = test system: HL-60
Malme-3M = test system: Malme-3M
ACHN = test system: ACHN
A498 = test system: A498
SNB-19 = test system: SNB-19
SF-539 = test system: SF-539
NCI-H460 = test system: NCI-H460

| SMILES | GI50 (SK-MEL-28) | GI50 (UACC-257) | GI50 (RXF 393) | GI50 (EKVX) | GI50 (K562) | GI50 (HCT-116) | GI50 (UO-31) | GI50 (NCI-H23) | GI50 (SN12C) | GI50 (OVCAR-5) | GI50 (NCI-H522) | GI50 (HL-60) | GI50 (Malme-3M) | GI50 (ACHN) | GI50 (A498) | GI50 (SNB-19) | GI50 (SF-539) | GI50 (NCI-H460) |
| --- | --- | --- | --- | --- | --- | --- | --- | --- | --- | --- | --- | --- | --- | --- | --- | --- | --- | --- |
| COC(=O)c1cccc2c3ccccc3c3ccccc3c12 | 41.5 µM (inactive) | 38.3 µM (inactive) | 24 µM (inactive) | > 100 µM (inactive) | 29 µM (inactive) | 37.8 µM (inactive) | 39.9 µM (inactive) | 23.1 µM (inactive) | 45.4 µM (inactive) | 49.1 µM (inactive) | 36.4 µM (inactive) | 23.3 µM (inactive) | 73.5 µM (inactive) | 79.3 µM (inactive) | 20.2 µM (inactive) | 30.4 µM (inactive) | – | – |
| CCOC(=O)Cc1c(Cc2[nH]c(C(=O)OCc3ccccc3)c(CC(=O)OCC)c2CC(=O)OCC)[nH]c(C(=O)OCc2ccccc2)c1CC(=O)OCC | > 100 µM (inactive) | – | – | – | > 100 µM (inactive) | > 100 µM (inactive) | 67.8 µM (inactive) | – | > 100 µM (inactive) | – | > 100 µM (inactive) | > 100 µM (inactive) | > 100 µM (inactive) | > 100 µM (inactive) | > 100 µM (inactive) | > 100 µM (inactive) | > 100 µM (inactive) | – |
| NC(=O)NCc1c(C(N)=O)ncn1Cc1ccccc1 | > 100 µM (inactive) | > 100 µM (inactive) | > 100 µM (inactive) | > 100 µM (inactive) | > 100 µM (inactive) | > 100 µM (inactive) | – | > 100 µM (inactive) | > 100 µM (inactive) | – | – | > 100 µM (inactive) | – | > 100 µM (inactive) | > 100 µM (inactive) | > 100 µM (inactive) | > 100 µM (inactive) | > 100 µM (inactive) |
| S=C1NCCN1 | > 100 µM (inactive) | > 100 µM (inactive) | – | > 100 µM (inactive) | > 100 µM (inactive) | > 100 µM (inactive) | > 100 µM (inactive) | > 100 µM (inactive) | > 100 µM (inactive) | > 100 µM (inactive) | > 100 µM (inactive) | > 100 µM (inactive) | > 100 µM (inactive) | > 100 µM (inactive) | – | > 100 µM (inactive) | > 100 µM (inactive) | – |
| COC(=O)C1=C(C)N(NC(=O)c2ccccc2)C(C)(O)C12CCOC2=O (stereo unspecified) | > 100 µM (inactive) | > 100 µM (inactive) | – | > 100 µM (inactive) | > 100 µM (inactive) | > 100 µM (inactive) | > 100 µM (inactive) | > 100 µM (inactive) | > 100 µM (inactive) | > 100 µM (inactive) | > 100 µM (inactive) | > 100 µM (inactive) | 0.0475 µM (active) | > 100 µM (inactive) | > 100 µM (inactive) | > 100 µM (inactive) | > 100 µM (inactive) | > 100 µM (inactive) |
| COc1ccc(C(=O)C(c2ccc(OC)cc2)C2(O)C(=O)Nc3ccccc32)cc1 (stereo unspecified) | > 100 µM (inactive) | > 100 µM (inactive) | – | > 100 µM (inactive) | > 100 µM (inactive) | > 100 µM (inactive) | > 100 µM (inactive) | > 100 µM (inactive) | > 100 µM (inactive) | – | > 100 µM (inactive) | 98.6 µM (inactive) | > 100 µM (inactive) | > 100 µM (inactive) | – | > 100 µM (inactive) | > 100 µM (inactive) | – |
| C=C1CC[C@@H]2C(C)(C)C(O)CCC2(C)C1COc1ccc2ccc(=O)oc2c1 (stereo partly specified) | 18.1 µM (inactive) | 18.6 µM (inactive) | 15.3 µM (inactive) | 19.3 µM (inactive) | 16.6 µM (inactive) | 15.5 µM (inactive) | 16 µM (inactive) | 18.6 µM (inactive) | 16.3 µM (inactive) | – | 16.3 µM (inactive) | 15.1 µM (inactive) | 18.1 µM (inactive) | 16.8 µM (inactive) | 19.9 µM (inactive) | 18.3 µM (inactive) | 16.8 µM (inactive) | 10.5 µM (inactive) |
| Cc1cccc(C(C)(C)C)c1NC(=O)CCl | > 100 µM (inactive) | > 100 µM (inactive) | > 100 µM (inactive) | > 100 µM (inactive) | > 100 µM (inactive) | > 100 µM (inactive) | > 100 µM (inactive) | > 100 µM (inactive) | > 100 µM (inactive) | – | > 100 µM (inactive) | > 100 µM (inactive) | > 100 µM (inactive) | > 100 µM (inactive) | > 100 µM (inactive) | > 100 µM (inactive) | > 100 µM (inactive) | > 100 µM (inactive) |
| COC(=O)CC1NC(=O)C1C1(C)OCCO1 (stereo unspecified) | > 100 µM (inactive) | > 100 µM (inactive) | > 100 µM (inactive) | > 100 µM (inactive) | – | > 100 µM (inactive) | > 100 µM (inactive) | > 100 µM (inactive) | > 100 µM (inactive) | – | – | > 100 µM (inactive) | > 100 µM (inactive) | > 100 µM (inactive) | > 100 µM (inactive) | > 100 µM (inactive) | > 100 µM (inactive) | > 100 µM (inactive) |
| CCc1cccc(C)c1NC(=O)C(=O)CC(=O)c1ccc(Cl)s1 | > 100 µM (inactive) | > 100 µM (inactive) | – | > 100 µM (inactive) | > 100 µM (inactive) | > 100 µM (inactive) | > 100 µM (inactive) | > 100 µM (inactive) | > 100 µM (inactive) | – | – | > 100 µM (inactive) | > 100 µM (inactive) | > 100 µM (inactive) | > 100 µM (inactive) | > 100 µM (inactive) | > 100 µM (inactive) | > 100 µM (inactive) |
| C#CCN(N=O)C(=O)NCCCCC(NC(C)=O)C(=O)NCc1ccccc1 (stereo unspecified) | > 100 µM (inactive) | > 100 µM (inactive) | > 100 µM (inactive) | > 100 µM (inactive) | 54.1 µM (inactive) | > 100 µM (inactive) | > 100 µM (inactive) | > 100 µM (inactive) | > 100 µM (inactive) | > 100 µM (inactive) | 25.5 µM (inactive) | – | > 100 µM (inactive) | > 100 µM (inactive) | > 100 µM (inactive) | > 100 µM (inactive) | > 100 µM (inactive) | > 100 µM (inactive) |
| CC(C)c1cccc(C(C)C)c1NC(=O)C(=O)C(C(=O)c1ccc2ccccc2c1)C1OC(=O)c2ccccc21 (stereo unspecified) | > 100 µM (inactive) | > 100 µM (inactive) | 11 µM (inactive) | 24.5 µM (inactive) | > 100 µM (inactive) | > 100 µM (inactive) | 47.8 µM (inactive) | > 100 µM (inactive) | > 100 µM (inactive) | 26.9 µM (inactive) | > 100 µM (inactive) | – | > 100 µM (inactive) | > 100 µM (inactive) | 34 µM (inactive) | > 100 µM (inactive) | > 100 µM (inactive) | > 100 µM (inactive) |
| COC1CCC2C(=O)CCCC2O1 (stereo unspecified) | – | > 100 µM (inactive) | > 100 µM (inactive) | > 100 µM (inactive) | > 100 µM (inactive) | > 100 µM (inactive) | > 100 µM (inactive) | > 100 µM (inactive) | > 100 µM (inactive) | > 100 µM (inactive) | > 100 µM (inactive) | > 100 µM (inactive) | > 100 µM (inactive) | > 100 µM (inactive) | > 100 µM (inactive) | > 100 µM (inactive) | > 100 µM (inactive) | > 100 µM (inactive) |
| O=C1OC(Cl)C(N=P(c2ccccc2)(c2ccccc2)c2ccccc2)=C1Cl (stereo unspecified) | > 100 µM (inactive) | > 100 µM (inactive) | – | > 100 µM (inactive) | > 100 µM (inactive) | > 100 µM (inactive) | > 100 µM (inactive) | > 100 µM (inactive) | > 100 µM (inactive) | – | > 100 µM (inactive) | > 100 µM (inactive) | > 100 µM (inactive) | – | > 100 µM (inactive) | > 100 µM (inactive) | 93.3 µM (inactive) | – |
| CSC(=S)N(C)NC(=O)c1cccc(C(=O)NN(C)C(=S)SC)n1 | 15.4 µM (inactive) | 7.48 µM (inactive) | 25.7 µM (inactive) | 16.1 µM (inactive) | 15.6 µM (inactive) | 36.3 µM (inactive) | – | 24.2 µM (inactive) | 22.2 µM (inactive) | 4.88 µM (inactive) | 15.2 µM (inactive) | 5.7 µM (inactive) | – | > 100 µM (inactive) | 28.2 µM (inactive) | 26.4 µM (inactive) | 24.5 µM (inactive) | 6.11 µM (inactive) |
| Cc1ccc(/C=C/C(=O)C(C)C)cc1 | > 100 µM (inactive) | 53.6 µM (inactive) | 39.8 µM (inactive) | > 100 µM (inactive) | 31.3 µM (inactive) | – | 54.1 µM (inactive) | 46.6 µM (inactive) | – | 18.4 µM (inactive) | 24.8 µM (inactive) | – | – | 83.8 µM (inactive) | > 100 µM (inactive) | 84.7 µM (inactive) | – | 44.7 µM (inactive) |
| O=C(O)C1=C(O)C(C(=O)O)C23CCCCCCCCCCC12C(C(=O)O)C(O)=C3C(=O)O (stereo unspecified) | > 100 µM (inactive) | > 100 µM (inactive) | > 100 µM (inactive) | > 100 µM (inactive) | > 100 µM (inactive) | – | > 100 µM (inactive) | > 100 µM (inactive) | > 100 µM (inactive) | > 100 µM (inactive) | > 100 µM (inactive) | > 100 µM (inactive) | > 100 µM (inactive) | > 100 µM (inactive) | – | > 100 µM (inactive) | > 100 µM (inactive) | > 100 µM (inactive) |
| CN(C)CCNc1nc(-c2cccs2)cc(-c2cccs2)n1 | 15.9 µM (inactive) | 11.6 µM (inactive) | 14.6 µM (inactive) | – | 17.7 µM (inactive) | 11.3 µM (inactive) | 11.2 µM (inactive) | 10.5 µM (inactive) | 12.9 µM (inactive) | 9.18 µM (inactive) | > 10 µM (inactive) | – | 15.5 µM (inactive) | – | 11.9 µM (inactive) | – | 15.1 µM (inactive) | 3.85 µM (inactive) |
